This is an account of results in article PMC4462585, “Synthesis and Biological Evaluation of 3-Alkyl-1,5-Diaryl-1H-Pyrazoles as Rigid Analogues of Combretastatin A-4 with Potent Antiproliferative Activity” (PLoS ONE, 2015).

Each structure is given as a SMILES string.

Data set [1] has as its system microtubule network in SGC-7901 cells. As to the kind of experiment: Immunostaining of tubulin assembly in SGC-7901 cells. It is filed as cell-based, human. As to conditions: 2-fold IC50 concentration (7k 0.14 μM), 48 h. The protocol:
Microtubules were labelled using the indirect immuno-fluorescence method and were analysed by fluorescence microscopy. […] SGC-7901 cells were treated with 7k (0.14 μM) for 48 h (scale bar = 10 μm). The left, middle and right panels represent the tubulin assembly stained with FITC, DAPI and a merge of the corresponding left and middle panels, respectively. Images were taken using a confocal microscope. Immunostaining was performed to detect microtubule-associated tubulin protein after exposure to CA-4 and compound 7k. The SGC-7901 and HT-1080 cells were seeded at a density of 1 × 10^4 per well on a 24-well plate and grown for 24 h. […] The control and treated cells were fixed in acetone:methanol (1:1) for 30 min at -20°C, washed with 1X PBS, incubated for 30 min in 1X PBS containing 2% BSA, and then 0.1% Triton X-100. The primary tubulin antibody (Cell Signaling Technology, MA, USA) was diluted (1:100) with 2% BSA in 1X PBS and incubated overnight at 4°C. The cells were washed with 1X PBS to remove unbound primary antibody, and then cells were incubated for 3 h at 37°C with FITC-conjugated anti-mouse secondary antibody diluted 1:1000 with 2% BSA in PBS.

Data set [2] concerns three human cancer cell lines (SGC-7901, A549 and HT-1080). The experiment in a line: MTT antiproliferative assay, three human cancer cell lines. Format: cell-based. As to conditions: HT-1080, SGC-7901, A549, 72 h, read-out: Antiproliferative IC50 values, range over the three cancer cell lines. From the text:
(§1) Pulmonary adenocarcinoma cell lines (A549) and gastric adenocarcinoma cell lines (SGC-7901) were provided as gifts (purchased from the Cell Resource Center of Shanghai Institutes for Biological Sciences) from the China-Japan Research Institute of Medical and Pharmaceutical Sciences, Shenyang Pharmaceutical University. Fibrosarcoma cell lines (HT-1080) were purchased from the Cell Resource Center of Shanghai Institutes for Biological Sciences. All cells were maintained in DMEM containing 1% antibiotics (100 units of penicillin and […] per mL in 0.9% normal saline) and 10% foetal bovine serum in a humidified atmosphere containing 5% CO2 at 37°C.
Antiproliferative activities of CA-4 and the target compounds were measured using a colourimetric assay using 3-(4,5-dimethylthiazol-2yl-)-2,5-diphenyltetrazolium bromide (MTT). Approximately 3 × 10^4 cells were seeded in a 96-well plate. After 24 h of incubation at 37°C, cells were exposed to compounds of differing concentrations (0.0008 μg/mL, 0.004 μg/mL, 0.02 μg/mL, 0.10 μg/mL, 0.50 μg/mL, 2.5 μg/mL, 12.5 μg/mL, 62.5 μg/mL) for 72 h. […] The colour density was measured spectrophotometrically at 490 nm using a microplate reader (SpectraMax Plus384, Molecular Devices Corp., USA). The percentage of cell growth inhibition was calculated as follow: inhibition ratio % = (Acontrol—Atreated) / Acontrol × 100%. […]
A general note: Tetrazolium dyes change colour on reduction, which living cells bring about.

Data set [3] concerns pulmonary adenocarcinoma cell line A549. As to the kind of experiment: MTT antiproliferative assay, A549. Format: cell-based. As to conditions: Homo sapiens, 72 h drug exposure, triplicate, read-out: Antiproliferative activity (IC50 ± SD) A549.
Text: as §1
(§2) Antiproliferative activities of CA-4 and the target compounds were measured using a colourimetric assay using 3-(4,5-dimethylthiazol-2yl-)-2,5-diphenyltetrazolium bromide (MTT). Approximately 3 × 10^4 cells were seeded in a 96-well plate. After 24 h of incubation at 37°C, cells were exposed to compounds of differing concentrations (0.0008 μg/mL, 0.004 μg/mL, 0.02 μg/mL, 0.10 μg/mL, 0.50 μg/mL, 2.5 μg/mL, 12.5 μg/mL, 62.5 μg/mL) for 72 h. After treatment, cells were washed with 1X PBS followed by addition of 100 μL of 0.05% MTT reagent to each well, followed by incubation for 4 h at 37°C. After incubation, the supernatant from each well was carefully removed and the formazan crystals were dissolved in 100 μL of DMSO. The colour density was measured spectrophotometrically at 490 nm using a microplate reader (SpectraMax Plus384, Molecular Devices Corp., USA). The percentage of cell growth inhibition was calculated as follow: inhibition ratio % = (Acontrol—Atreated) / Acontrol × 100%. The 50% inhibitory concentration (IC50) was defined as the concentration that reduced the absorbance of the untreated wells by 50% of the vehicle in the MTT assay.

Data set [4] has as its system purified bovine tubulin. As to the kind of experiment: Tubulin assembly (polymerization) assay, cell-free, fluorescence-based. It is filed as biochemical. The conditions noted are these: 37°C, IC50 calculated at 80 min, three experiments, read-out: Inhibition of tubulin polymerization IC50. The protocol: Fig 5 Dose-response effects of CA-4 (1), 7i and 7k on the inhibition of tubulin polymerization. Purified bovine tubulin and GTP were mixed in a 96-well plate. The reaction was initiated by warming the solution from 4°C to 37°C. DMSO was used as a vehicle control. The effect on the assembly of tubulin was monitored using a plate reader at 1 min intervals for 90 min at 37°C.
The effect of compounds 7i and 7k on the polymerization of purified brain tubulin was determined employing a fluorescence-based tubulin polymerization assay kit (Cat. #BK011P, Cytoskeleton, Inc., USA) according to the manufacturer’s protocol. Tubulin was re-suspended in ice-cold G-PEM buffer (80 mM PIPES, 2 mM MgCl2, 0.5 mM EGTA, 1 mM GTP, 20% (v/v) glycerol) and added to wells on a 96-well plate containing the designated concentration of drugs or vehicle. Samples were mixed well, and tubulin assembly was monitored (emission wavelength: 450 nm; excitation wavelength: 360 nm) at 1 min intervals for 90 min at 37°C using a plate reader ([…]). IC50 values were calculated at 80 min using SPSS software in three experiments.

Data set [5] deals with microtubule network in HT-1080 cells. The experiment in a line: Immunostaining of tubulin assembly in HT-1080 cells. Format: cell-based, human. As to conditions: 2-fold IC50 concentration (7k 0.18 μM), 48 h. The protocol: Microtubules were labelled using the indirect immuno-fluorescence method and were analysed by fluorescence microscopy. […] HT-1080 cells were treated with 7k (0.18 μM) for 48 h (scale bar = 10 μm). The left, middle and right panels represent tubulin assembly stained with FITC, DAPI and a merge of the corresponding left and middle panels, respectively. Images were taken using a confocal microscope. Immunostaining was performed to detect microtubule-associated tubulin protein after exposure to CA-4 and compound 7k. The SGC-7901 and HT-1080 cells were seeded at a density of 1 × 10^4 per well on a 24-well plate and grown for 24 h. […] The control and treated cells were fixed in acetone:methanol (1:1) for 30 min at -20°C, washed with 1X PBS, incubated for 30 min in 1X PBS containing 2% BSA, and then 0.1% Triton X-100. The primary tubulin antibody (Cell Signaling Technology, MA, USA) was diluted (1:100) with 2% BSA in 1X PBS and incubated overnight at 4°C. The cells were washed with 1X PBS to remove unbound primary antibody, and then cells were incubated for 3 h at 37°C with FITC-conjugated anti-mouse secondary antibody diluted 1:1000 with 2% BSA in PBS.

Data set [6] has as its system fibrosarcoma cell line HT-1080. As to the kind of experiment: MTT antiproliferative assay, HT-1080. The conditions noted are these: Homo sapiens, 72 h drug exposure, triplicate, read-out: Antiproliferative activity (IC50 ± SD) HT-1080. It is filed as cell-based.
Text: as §1, §2

In data set [7] the test system is gastric adenocarcinoma cell line SGC-7901. As to the kind of experiment: MTT antiproliferative assay, SGC-7901. Format: cell-based. The conditions noted are these: Homo sapiens, 72 h drug exposure, triplicate, read-out: Antiproliferative activity (IC50 ± SD) SGC-7901.
Text: as §1, §2

By IC50 is commonly meant the midpoint of a concentration-inhibition curve. For `COc1ccc(/C=C\c2cc(OC)c(OC)c(OC)c2)cc1O` [Compound 1, Combretastatin A-4], the “Effect on microtubule network (immunofluorescence), SGC-7901” value in data set [1] is given as “disruption of the tubulin network”. Further, the 50% inhibitory concentration (IC50) is 16 to 35 nM in data set [2]; 35 ± 9 nM in data set [3]; 900 nM in data set [4]; 23 ± 12 nM in data set [6]; 16 ± 10 nM in data set [7]. The “Effect on microtubule network (immunofluorescence), HT-1080” value in data set [5] is listed as “disruption of the tubulin network”.

The melting point is the temperature, or range, at which the solid turns liquid. `COc1ccc(-c2cc(C)nn2-c2cc(OC)c(OC)c(OC)c2)cc1O` [Compound 7i, 3-Methyl-5-(3-hydroxy-4-methoxyphenyl)-1-(3,4,5-trimethoxyphenyl)-1H-pyrazole] came in with a melting point of 130 to 131 °C. For the same compound, the IC50 in data set [3] worked out at 1120 ± 120 nM. Besides, in data set [4], the IC50 is 2500 nM. In addition, in data set [6], the IC50 amounted to 930 ± 130 nM. The IC50 in data set [7] turned out to be 275 ± 20 nM.

The compound `COc1ccc(-c2cc(C)nn2-c2cc(OC)c(OC)c(OC)c2)cc1N` [Compound 7k, 3-Methyl-5-(3-amino-4-methoxyphenyl)-1-(3,4,5-trimethoxyphenyl)-1H-pyrazole] registered a melting point of 129 to 130 °C. Moreover, the “Effect on microtubule network (immunofluorescence), SGC-7901” value in data set [1] was “disruption of the tubulin network”. Besides, the IC50 in data set [2] was 76 to 120 nM. Also, the IC50 in data set [3] worked out at 96 ± 11 nM. Besides, the concentration for half-maximal inhibition (IC50) in data set [4] is 1700 nM. Also, the “Effect on microtubule network (immunofluorescence), HT-1080” value in data set [5] is “disruption of the tubulin network”. Moreover, the IC50 in data set [6] turned out to be 122 ± 13 nM. Besides, the IC50 in data set [7] worked out at 76 ± 9 nM.

Turning to `COc1ccc(-n2nc(C)cc2-c2cc(OC)c(OC)c(OC)c2)cc1N` [Compound 8g, 3-Methyl-1-(3-amino-4-methoxyphenyl)-5-(3,4,5-trimethoxyphenyl)-1H-pyrazole], the melting point was in the range of 56 to 57 °C. In data set [3], the IC50 was determined as 21400 ± 1200 nM. The half-inhibitory concentration (IC50) in data set [6] worked out at 24700 ± 2300 nM. The IC50 in data set [7] was found to be 21200 ± 1600 nM.

`C=CCOc1cc(-n2nc(C)cc2-c2cc(OC)c(OC)c(OC)c2)ccc1OC` [Compound 8h, 3-Methyl-1-(3-allyloxy-4-methoxyphenyl)-5-(3,4,5-trimethoxyphenyl)-1H-pyrazole] showed a melting point of 98 to 99 °C. Moreover, the IC50 in data set [3] is above 100000 nM. In data set [6], the half-maximal inhibitory concentration (IC50) is above 100000 nM. For the same compound, in data set [7], the half-inhibitory concentration (IC50) is above 100000 nM.

Turning to `COc1ccc(-n2nc(C)cc2-c2cc(OC)c(OC)c(OC)c2)cc1O` [Compound 8i, 3-Methyl-1-(3-hydroxy-4-methoxyphenyl)-5-(3,4,5-trimethoxyphenyl)-1H-pyrazole], the melting point fell in the range of 167 to 168 °C. Besides, in data set [3], the IC50 stood at 21800 ± 2100 nM. Moreover, the half-maximal inhibitory concentration (IC50) in data set [6] worked out at 15000 ± 900 nM. The IC50 in data set [7] came to 13700 ± 1200 nM.
